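Grown in 96-well plates, cells were treated for 48 hours with each compound at five concentrations. Insufficient inhibition: endpoint recorded as highest concentration tested. Here, GI50 denotes the concentration required for 50% inhibition of growth. At the TGI there is no net growth.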
Tests used:
Test in all cases: NCI anticancer screen, dose series, 48 h
[1] = test system: 786-0 renal
[2] = test system: A498 renal
[3] = test system: A549 NSCLC
[4] = test system: ACHN renal
[5] = test system: BT-549 breast
[6] = test system: CAKI-1 renal
[7] = test system: CCRF-CEM leukemia
[8] = test system: COLO 205 colon
[9] = test system: DU-145 prostate
[10] = test system: EKVX NSCLC
[11] = test system: HCC-2998 colon
[12] = test system: HCT-116 colon
[13] = test system: HCT-15 colon
[14] = test system: HOP-62 NSCLC
[15] = test system: HOP-92 NSCLC
[16] = test system: HS 578T breast
[17] = test system: HT29 colon
[18] = test system: K-562 leukemia
[19] = test system: KM12 colon
[20] = test system: M14 melanoma
[21] = test system: MALME-3M melanoma
[22] = test system: MCF7 breast
[23] = test system: MDA-MB-231 breast
[24] = test system: MDA-MB-435
[25] = test system: MOLT-4 leukemia
[26] = test system: NCI-H23 lung
[27] = test system: NCI-H460 lung
[28] = test system: NCI-H522 lung
[29] = test system: NCI/ADR-RES ovarian
[30] = test system: OVCAR-3 ovarian
[31] = test system: OVCAR-5 ovarian
[32] = test system: OVCAR-8 ovarian
[33] = test system: PC-3 prostate
[34] = test system: RPMI-8226 leukemia
[35] = test system: RXF 393 renal
[36] = test system: SF-268 CNS
[37] = test system: SF-539 CNS
[38] = test system: SK-MEL-2 melanoma
[39] = test system: SK-MEL-28 melanoma
[40] = test system: SK-MEL-5 melanoma
[41] = test system: SK-OV-3 ovarian
[42] = test system: SN12C renal
[43] = test system: SNB-19 CNS
[44] = test system: SNB-75 CNS
[45] = test system: SR leukemia
[46] = test system: SW-620 colon
[47] = test system: T-47D breast
[48] = test system: TK-10 renal
[49] = test system: U251 CNS
[50] = test system: UACC-257 melanoma
[51] = test system: UACC-62 melanoma
[52] = test system: UO-31 renal

O=C(/C=C/c1cccs1)c1ccc(Cl)cc1Cl
GI50 [1]: 16.6 µM | TGI [1]: 33.9 µM | GI50 [2]: 17.9 µM | TGI [2]: 32.7 µM | GI50 [3]: 17.3 µM | TGI [3]: 36.4 µM | GI50 [4]: 17.4 µM | TGI [4]: 31.3 µM | GI50 [5]: 19.3 µM | TGI [5]: 39.9 µM | GI50 [6]: 20.9 µM | TGI [6]: 43.1 µM | GI50 [7]: 32.1 µM | TGI [7]: 97.1 µM | GI50 [8]: 27.1 µM | TGI [8]: 88.9 µM | GI50 [9]: 20 µM | TGI [9]: 43.7 µM | GI50 [10]: 18.6 µM | TGI [10]: 36.7 µM | GI50 [11]: 19.2 µM | TGI [11]: 34.8 µM | GI50 [12]: 14 µM | TGI [12]: 30.8 µM | GI50 [13]: 14.7 µM | TGI [13]: 32.4 µM | GI50 [14]: 19.4 µM | TGI [14]: 37.7 µM | GI50 [15]: 23.8 µM | TGI [15]: 61.4 µM | GI50 [16]: 24.5 µM | TGI [16]: 55.9 µM | GI50 [17]: 28.1 µM | TGI [17]: > 100 µM | GI50 [18]: 19.1 µM | TGI [18]: 56.4 µM | GI50 [19]: 19.1 µM | TGI [19]: 40 µM | GI50 [20]: 19.8 µM | TGI [20]: 40.5 µM | GI50 [21]: 1.04 µM | TGI [21]: 19.8 µM | GI50 [22]: 18.4 µM | TGI [22]: 51.6 µM | GI50 [23]: 14.3 µM | TGI [23]: 28.1 µM | GI50 [24]: 17.7 µM | TGI [24]: 35.2 µM | GI50 [25]: 18.8 µM | TGI [25]: 51.9 µM | GI50 [26]: 17.1 µM | TGI [26]: 33.6 µM | GI50 [27]: 18 µM | TGI [27]: 37.1 µM | GI50 [28]: 17.4 µM | TGI [28]: 36.5 µM | GI50 [29]: 31.4 µM | TGI [29]: > 100 µM | GI50 [30]: 19 µM | TGI [30]: 36.4 µM | GI50 [31]: 20.1 µM | TGI [31]: 39 µM | GI50 [32]: 19.4 µM | TGI [32]: 48.3 µM | GI50 [33]: 33.2 µM | TGI [33]: > 100 µM | GI50 [34]: 27.7 µM | TGI [34]: > 100 µM | GI50 [35]: 19.4 µM | TGI [35]: 38.4 µM | GI50 [36]: 19.1 µM | TGI [36]: 39 µM | GI50 [37]: 19.8 µM | TGI [37]: 38.6 µM | GI50 [38]: 17.5 µM | TGI [38]: 35 µM | GI50 [39]: 22.4 µM | TGI [39]: 52.7 µM | GI50 [40]: 15 µM | TGI [40]: 28.8 µM | GI50 [41]: 25.5 µM | TGI [41]: 55.3 µM | GI50 [42]: 16.4 µM | TGI [42]: 31.2 µM | GI50 [43]: 24 µM | TGI [43]: 64.2 µM | GI50 [44]: 18.1 µM | TGI [44]: 35.9 µM | GI50 [45]: 15 µM | TGI [45]: 77.3 µM | GI50 [46]: 18.8 µM | TGI [46]: 37.1 µM | GI50 [47]: 28.6 µM | TGI [47]: > 100 µM | GI50 [48]: 25.3 µM | TGI [48]: 61.1 µM | GI50 [49]: 14.6 µM | TGI [49]: 28.1 µM | GI50 [50]: 16.6 µM | TGI [50]: 31.9 µM | GI50 [51]: 13.4 µM | TGI [51]: 26.4 µM | GI50 [52]: 18.5 µM | TGI [52]: 34.2 µM
